From publication PMC11451635, “A Broad Spectrum Lasso Peptide Antibiotic Targeting the Bacterial Ribosome” (Research Square, 2024)
In brackets after ≈: the same amount, converted by molar mass. Entries after “also recorded” stand apart in the source; their conditions may differ. Where a SMILES comes first, the peptide text is derived from it. Bridges are numbered along the chain shown (N, C = ends).

What was measured:
[1] = test system: Pseudomonas aeruginosa PAO1
HEK293 cells = test: Cytotoxicity against human cells
E. coli BW25113 [2] = test: Cell lysis assay (optical density); format: cell-based, Escherichia coli; settings: exponential E. coli culture, OD600 over 6 h
Procedure: (§1) E. coli BW25113 was grown overnight in 5 ml MOPS minimal medium and diluted 1:100 in 3 ml of fresh medium in 14 ml culture tubes. Cells were grown for three to four hours to reach mid-exponential phase (OD600 0.4–0.6) and treated with 10xMIC of LAR (40 μg/ml) or colistin (2.5 to 5 μg/ml) in 1 ml culture at 37°C with agitation at 250 rpm. Cultures were sampled at various times, centrifuged at 10,000 xg for 3 min, and plated on MHA plates. The number of colony forming units (cfu) was determined after incubating plates for 20–24 hr at 37°C. A time-kill assay against A. baumannii C0286 was performed in MHB. For cell lysis assay, cultures were prepared as described above. Initial OD600 was adjusted to 0.15–0.2, and 98 μl of culture was added to a 96-well plate containing 2 μl of compound. The plates were incubated with orbital shaking at maximum speed with a Synergy Microplate Reader (Biotek), and OD600 was measured over 6 h. Experiments were performed in two to three biological replicates. For colistin in cell lysis assay, clumping of cells was observed after ≈2h, leading to a false increase in OD; therefore, data for colistin was not plotted after this period. The plate was manually mixed on a vortex, and the turbidity of colistin-treated wells was confirmed.

bacteria (Table 1) = test: MIC in nutrient-limited media; format: cell-based; settings: nutrient-limited media vs MHB
Procedure: (§2) MICs were determined using broth microdilution method in cation-adjusted Mueller-Hinton Broth (MHBII, BD Difco) following standard procedures unless stated otherwise. Mycobacteria susceptibility was tested in Middlebrook 7H9 medium supplemented with 10% OADC Enrichment (oleic acid, bovine albumin, dextrose, and catalase) (BD Difco). The compounds (2 to 4 μl) were mixed with diluted cultures (5–7 × 10^5 cfu/mL) in MHB (196 to 198 μL) in 96-well round-bottom plates, and 2-fold serial dilutions were made. Plates were incubated at 37°C for 18–22 h, and OD600 readings were taken on Synergy Microplate Reader (Biotek). MIC was determined to be the lowest concentration of antibiotics with no visible growth. For Mycobacterial cultures, the plates were read after two to three days. Susceptibility was also assessed in MOPS minimal medium with 0.4% glucose (M2106 Teknova) and RPMI-1640 medium. Serum effects were tested in MHB with 10% or 50% fetal bovine serum (Invitrogen) or human serum (Heat Inactivated, from human male AB plasma; Sigma-Aldrich). For anaerobic conditions, E. coli was incubated in BD GasPak™ EZ pouch systems. To adjust the pH of the media, 1M NaOH or 1N HCl was used.

Bacillus subtilis 168 = format: cell-based
E. coli = test: MIC under anaerobic conditions; format: cell-based, Escherichia coli; settings: anaerobic vs aerobic
Procedure: as §2

B. subtilis 168 = test: Selection of spontaneous resistant mutants; format: cell-based, Bacillus subtilis; settings: ~10^9 cfu on Mueller-Hinton agar, 37°C, 24–48 h
E. coli ribosome = test: Translocation inhibition assay; format: biochemical, Escherichia coli; settings: 62.5 μM LAR or 250 μM negamycin, EF-G/GTP, primer extension
E. coli BW25113 [3] = test: Time-dependent killing; format: cell-based, Escherichia coli; settings: 10xMIC (40 μg/ml), MOPS minimal medium, 37°C
Procedure: as §1

A. baumannii C0286 = test: Neutropenic mouse thigh-infection model
E. coli BW25113 membrane = test: Membrane depolarization assay; format: cell-based, Escherichia coli; settings: DiOC2(3) 30 μM, 60 min, room temperature, fluorescence
Procedure: Mid-exponential phase E. coli BW25113 culture (OD600 0.3–0.5) was mixed with […] (DiOC2(3), ThermoFisher Scienti c) dye at a nal concentration of 30 μM and 190 μL of cells were placed into wells of a 96-well black plate. A volume of 10 μl of test compounds or DMSO was added, mixed by pipetting, and fluorescence was measured for 60 min at room temperature using a Synergy Microplate Reader (Biotek) (lex/lem: 450/670 nm). Carbonyl cyanide m-chlorophenyl hydrazone (CCCP) served as a positive control.

[4] = test system: strains with odilorhabdin-resistance mutations; test: MIC in odilorhabdin-resistance mutants; format: cell-based; settings: three of 10 known odilorhabdin-resistance mutations
Procedure: as §2

[5] = test system: Candida albicans ATCC 90028
[6] = test system: E. coli BW25113 ΔtolCΔbamB expressing various resistance genes; test: Cross-resistance with resistance mechanisms; settings: mutations or enzymatic resistance mechanisms; Extended Data Fig. 10
[7] = test system: Clostridium perfringens GC1584; settings: column MHB; method: BHI + L-cysteine, hemin, vitamin K, anaerobic, 37 °C

Structure (SMILES): CC(C)[C@H](NC(=O)CNC(=O)[C@H](CCCNC(=N)N)NC(=O)CNC(=O)[C@H](Cc1ccccc1)NC(=O)[C@H](CCCCN)NC(=O)CNC(=O)[C@@H]1CC(=O)N[C@@H](CO)C(=O)N[C@@H](CCCCN)C(=O)N[C@@H](CCCCN)C(=O)N[C@@H](CO)C(=O)N[C@@H](CCCCN)C(=O)N2CCC[C@H]2C(=O)NCC(=O)N1)C(=O)N[C@@H](CCCCN)C(=O)N[C@@H](CCCNC(=N)N)C(=O)NCC(=O)O [LAR, lariocidin] (SKKSKPGDGKFGRGVKRG-OH; lactam N-8)
- MIC [1]: 64 to 128 µg/mL
- Cytotoxicity against human cells (HEK293 cells): no human cell toxicity; also recorded: did not display hemolytic activity or cytotoxicity against human cells
- Effect on culture optical density (lysis) (E. coli BW25113 [2]): did not cause a decrease in the optical density of the culture below the initial point
- MIC reduction in nutrient-limited media (bacteria (Table 1)): ≤ 128 fold
- MIC (text) (Bacillus subtilis 168): 1 µg/mL (≈ 0.534 µM)
- Increase in MIC under anaerobic conditions (E. coli): 4-to-8 fold
- Frequency of resistant mutants (B. subtilis 168): ~ 10^−8
- Inhibition of ribosome translocation (E. coli ribosome): inhibits ribosome translocation; also recorded: this reaction was inhibited when LAR was present
- Viable cell count / bactericidal activity (E. coli BW25113 [3]): dramatically reduced the viable cell count; also recorded: exhibits bactericidal activity
- Reduction in bacterial burden, blood (A. baumannii C0286; 50 mg kg^−1 i.p. at 1, 4, 8 and 20 h post-infection, 24 h, vs vehicle, n = 8 treated): 2 orders of magnitude
- Reduction in bacterial burden, spleen (A. baumannii C0286; 50 mg kg^−1 i.p. at 1, 4, 8 and 20 h post-infection, 24 h, vs vehicle, n = 15 treated): 2 orders of magnitude
- Reduction in bacterial burden, thigh (A. baumannii C0286; 50 mg kg^−1 i.p. at 1, 4, 8 and 20 h post-infection, 24 h, vs vehicle, n = 30 treated): 2 orders of magnitude
- In vivo activity (A. baumannii C0286; mouse model of A. baumannii infection): potent in vivo activity
- Survival (A. baumannii C0286; over 48 h post-infection, 50 mg kg^−1 i.p. x4): 100%
- Appearance of treated mice (A. baumannii C0286; vs control mice): appeared much healthier than control mice
- Membrane depolarization (E. coli BW25113 membrane): did not permeabilize or depolarize the bacterial membrane
- Increase in LAR MIC by odilorhabdin-resistance mutations [4]: 2–4 x
- Antifungal action [5]: no antifungal action
- MIC ([5]; column MHB, method: yeast nitrogen base (YNB) without amino acids): >256 µg/mL
- Sensitivity to resistance mechanisms [6]: unaffected by common resistance mechanisms; also recorded: mostly insensitive to mutations or enzymatic resistance mechanisms
- MIC [7]: >256 µg/mL
